We go through seven molecules from patent US5486597A, “Tetrapeptide derivatives and analogues” (James Black Foundation Limited, priority 1990, dated 1996).

Non-standard residues stand in square brackets, D forms with d. Residues, ends and D or L forms follow the SMILES beside them. *: point of attachment. 2Nal = N[C@@H](Cc1ccc2ccccc2c1)C(=O)O; Boc = CC(C)(C)OC(=O)*

Holding throughout (assay type): cell-based
Assay [1] deals with T1, gastrin receptor (Cavia porcellus, UniProt H0VZC5).
T1 construct: Strips of muscle (approximately 2.5 cm by 1 cm) are removed from the proximal area of the stomach; from tissue; host or cells: guinea-pig proximal stomach (fundus) muscle strips
T1 sequence (H0VZC5 1-426): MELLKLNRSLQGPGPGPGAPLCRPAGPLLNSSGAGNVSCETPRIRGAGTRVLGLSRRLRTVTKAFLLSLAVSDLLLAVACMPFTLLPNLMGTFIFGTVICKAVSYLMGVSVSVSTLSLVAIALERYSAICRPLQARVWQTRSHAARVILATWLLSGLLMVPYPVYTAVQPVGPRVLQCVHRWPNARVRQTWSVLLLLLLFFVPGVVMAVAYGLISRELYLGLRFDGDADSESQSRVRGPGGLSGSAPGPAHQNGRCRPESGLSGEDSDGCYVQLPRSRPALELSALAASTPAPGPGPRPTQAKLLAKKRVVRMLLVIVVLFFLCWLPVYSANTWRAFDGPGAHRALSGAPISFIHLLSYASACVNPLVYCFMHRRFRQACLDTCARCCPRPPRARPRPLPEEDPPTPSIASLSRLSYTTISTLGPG
The assay is described as follows: guinea-pig fundus assay for gastrin activity (stomach muscle strips). The settings on record: 10^-8 M devazepide present, 60 minute equilibration, agonist e.g. pentagastrin, standard errors less than 5%. Here is the method:
The compounds were assayed for gastrin activity using the mouse stomach assay as described by Black, J. W. and Shankley, N. P., Br. J. Pharmacol., 86, 571-579, (1985), and also in the guinea-pig fundus assay, as follows:
The stomach is removed from a male Dunkin-Hartley guinea-pig (250-500 g), and Krebs solution is injected through a hypodermic needle under the top stomach muscle layer. The composition (mM) of the Krebs solution is as follows: Na^+ 143, K^+ 5.9, Ca^2+ 2.5, Mg^2+ 1.2, Cl^- 128, H2 PO4^- 2.2, HCO3^- 24.9, SO4^2- 1.2, dextrose 10. Strips of muscle (approximately 2.5 cm by 1 cm) are removed from the proximal area of the stomach (one from each side) and tied with cotton thread to isotonic transducers under an initial loading tension of 0.35 g.
The preparation is immersed in 20 mls of Krebs solution containing 10^-8 M devazepide (25 μl 2×10^-3 M devazepide/100% DMF solution in 5 dm^3 Krebs) and gassed with 95% O2 /5% CO2. The function of the devazepide is to block possible effects at CCK receptors present in the tissue.
The preparation is washed twice over a 60 minute period then 10 mM KCl is added. At 90 minutes, test compounds (ie. potential antagonists) are added and a further 60 minute equilibration period allowed. After this time, cumulative agonist (e.g. pentagastrin) dose-response curves are constructed.

Assay [2] concerns the target T2, cholecystokinin receptors (Cavia porcellus, UniProt Q63931).
T2 construct: Isolated, strip preparations were prepared from gall-bladders removed from male Dunkin-Hartley guinea-pigs; from tissue; host or cells: guinea-pig gall-bladder strips
T2 sequence (Q63931 1-430): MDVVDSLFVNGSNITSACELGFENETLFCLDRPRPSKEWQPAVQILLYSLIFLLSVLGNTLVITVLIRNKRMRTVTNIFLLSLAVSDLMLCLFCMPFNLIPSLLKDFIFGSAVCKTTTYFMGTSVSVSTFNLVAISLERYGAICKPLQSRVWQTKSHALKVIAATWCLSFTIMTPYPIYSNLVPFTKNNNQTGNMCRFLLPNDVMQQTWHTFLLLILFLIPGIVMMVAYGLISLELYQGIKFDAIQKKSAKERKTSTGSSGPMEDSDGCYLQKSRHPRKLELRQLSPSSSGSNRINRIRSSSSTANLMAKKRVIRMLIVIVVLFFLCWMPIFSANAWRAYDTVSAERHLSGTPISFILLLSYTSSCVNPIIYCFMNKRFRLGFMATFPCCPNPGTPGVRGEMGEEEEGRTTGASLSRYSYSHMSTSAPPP
The experiment in a line: CCK-antagonist activity in isolated guinea-pig gall-bladder strip preparations. Conditions: guinea-pig gall-bladder strips; CCK-8 as agonist; test compound incubated for 60 minutes; standard errors less than 5%. Put shortly: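 Male Dunkin-Hartley guinea-pig gall-bladder strips under 1 g isometric tension in Krebs (0.5 mM Ca²⁺), 37° C, 95% O2/5% CO2, stabilised 90 min. Cumulative CCK-8 concentration-effect curves without and with test compound (60 min preincubation); antagonism expressed as […] by modified competitive analysis.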

Assay [3] deals with T3, gastrin receptor (Mus musculus, UniProt P56481).
T3 construct: assayed for gastrin activity using the mouse stomach assay; from tissue; host or cells: isolated mouse stomach
T3 sequence (P56481 1-453): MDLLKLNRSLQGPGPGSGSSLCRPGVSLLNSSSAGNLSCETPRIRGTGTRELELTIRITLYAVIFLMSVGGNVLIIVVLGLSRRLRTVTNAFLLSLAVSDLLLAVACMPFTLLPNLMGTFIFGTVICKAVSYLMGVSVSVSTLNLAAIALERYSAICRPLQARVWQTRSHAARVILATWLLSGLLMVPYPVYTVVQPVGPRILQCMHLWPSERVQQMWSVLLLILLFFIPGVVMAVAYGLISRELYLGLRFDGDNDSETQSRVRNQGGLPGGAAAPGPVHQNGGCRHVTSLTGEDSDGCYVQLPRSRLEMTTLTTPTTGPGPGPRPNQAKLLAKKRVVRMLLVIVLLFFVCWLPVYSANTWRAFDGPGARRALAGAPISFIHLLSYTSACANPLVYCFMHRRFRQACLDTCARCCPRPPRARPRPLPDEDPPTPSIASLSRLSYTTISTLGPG
The assay is described as follows: mouse stomach assay for gastrin activity (isolated stomach, acid secretion). The settings on record: for Kb / pKB mouse stomach: isolated mouse stomach assay, gastrin antagonism, standard errors less than 5%; for Kb: read-out: pKB mouse stomach (converted); for Acid seretion at 10^-5 M test compound, relative to pentagastrin (%): mouse stomach, NS = not significant. Here is the method:
The compounds were assayed for gastrin activity using the mouse stomach assay as described by Black, J. W. and Shankley, N. P., Br. J. Pharmacol., 86, 571-579, (1985), and also in the guinea-pig fundus assay, as follows: […]

Consider `COc1ccc2[nH]cc(CC(NC(=O)OC(C)(C)C)C(=O)N[C@@H](Cc3ccc4ccccc4c3)C(=O)N[C@@H](CC(=O)O)C(=O)N[C@@H](Cc3ccccc3)C(N)=O)c2c1` (mixture of isomers) [Example 19, N-t-Butyloxycarbonyl-5-methoxy-D,L-tryptophyl-L-3-(2-naphthyl)alanyl-L-aspartyl-L-phenylalaninamide], for which the Kb is 1580 nM at gastrin receptor [1], 501 nM in assay [2] and 5010 nM at gastrin receptor [3]. The “Acid seretion at 10^-5 M test compound, relative to pentagastrin (%)” value (from here on “Acid seretion … relative to pentagastrin (%)”) on gastrin receptor [3] amounted to 80%.
What is called pKB is the KB on a negative log10 scale, so that one unit is a factor of ten. Higher therefore signals a low KB. At gastrin receptor [1], `CC(C)(C)OC(=O)N[C@@H](Cc1c[nH]c2ccccc12)C(=O)N[C@@H](Cc1ccc2ccccc2c1)C(=O)N[C@@H](CC(=O)O)C(=O)N[C@@H]1CCC[C@H]1c1ccccc1` (single isomer, unassigned; diastereomer 1) [Example 31, N-t-Butyloxycarbonyl-L-tryptophyl-L-3-(2-naphthyl)alanyl-L-aspartyl-trans-2-phenylcyclopentylamide (diastereomer 1)] registered a pKB of 6.1. In assay [2], this molecule showed a pKB of 6.5. Also, at gastrin receptor [3], the pKB mouse stomach is given as 5.0 and the “Acid seretion … relative to pentagastrin (%)” value was 40%.
With `CC(C)(C)OC(=O)N[C@@H](Cc1c[nH]c2ccccc12)C(=O)N[C@@H](Cc1ccc2ccccc2c1)C(=O)N[C@@H](CC(=O)O)C(=O)N[C@@H]1CCC[C@@H]1c1ccccc1` (single isomer, unassigned; diastereomer 1) [Example 33, N-t-Butyloxycarbonyl-L-tryptophyl-L-3-(2-naphthyl)alanyl-L-aspartyl-cis-2-phenylcyclopentylamide (diastereomer 1)], the pKB at gastrin receptor [1] amounted to 6.2; in assay [2], 7.0. For the same molecule, on gastrin receptor [3], the pKB mouse stomach is given as 5.2.
In turn, `CC(C)(C)OC(=O)N[C@@H](Cc1c[nH]c2ccccc12)C(=O)N[C@@H](Cc1ccc2ccccc2c1)C(=O)N[C@@H](CC(=O)O)C(=O)N[C@@H]1CCC[C@@H]1c1ccccc1` (single isomer, unassigned; diastereomer 2) [Example 34, N-t-Butyloxycarbonyl-L-tryptophyl-L-3-(2-naphthyl)alanyl-L-aspartyl-cis-2-phenylcyclopentylamide (diastereomer 2)] showed a pKB at gastrin receptor [1] of 5.8. The molecule also returned a pKB in assay [2] of 6.9. Moreover, at gastrin receptor [3], the pKB mouse stomach is 6.5 and the “Acid seretion … relative to pentagastrin (%)” value is given as 40%.
Turning to `CC(C)(C)OC(=O)N[C@@H](Cc1c[nH]c2ccccc12)C(=O)N[C@@H](Cc1ccc2ccccc2c1)C(=O)N[C@@H](CC(=O)O)C(=O)N[C@@H](Cc1ccccc1)C(N)=O` [Example 1, N-t-Butyloxycarbonyl-L-tryptophyl-L-3-(2-naphthyl)alanyl-L-aspartyl-L-phenylalaninamide] (Boc-W[2Nal]DF-NH2), the Kb on gastrin receptor [1] was 3160 nM; in assay [2] it was 5010 nM; at gastrin receptor [3], 631 nM. In addition, at gastrin receptor [3], the “Acid seretion … relative to pentagastrin (%)” value is 65%.
Take `COc1ccc(C[C@H](NC(=O)[C@H](CC(=O)O)NC(=O)[C@H](Cc2ccc3ccccc3c2)NC(=O)[C@H](Cc2c[nH]c3ccccc23)NC(=O)OC(C)(C)C)C(N)=O)cc1` [Example 7, N-t-Butyloxycarbonyl-L-tryptophyl-L-3-(2-naphthyl)alanyl-L-aspartyl-L-(4-methoxyphenylalanin)amide] (Boc-W[2Nal]DY(Me)-NH2): the pKB at gastrin receptor [1] turned out to be 5.3; in assay [2] it was 5.8. This molecule displayed a pKB mouse stomach on gastrin receptor [3] of 5.7.
On gastrin receptor [1], `CC(C)(C)OC(=O)N[C@@H](Cc1c[nH]c2ccccc12)C(=O)N[C@@H](Cc1ccc2ccccc2c1)C(=O)N[C@@H](CC(=O)O)C(=O)NCCc1ccc(Cl)cc1` [Example 8, N-t-Butyloxycarbonyl-L-tryptophyl-L-3-(2-naphthyl)alanyl-L-aspartyl-(4-chlorophenethyl)amide] returned a pKB of 5.0. Besides, on gastrin receptor [3], the pKB mouse stomach is reported as 5.9 and the “Acid seretion … relative to pentagastrin (%)” value came out at 28%.
